The structures appear in SMILES notation. pIC50: −log10 of the molar value.

For assay [1], the target named is T1, COX-2 (Homo sapiens, UniProt P35354).
T1 construct: incubation of human whole blood with LPS (lipopolysaccharide), which induces COX-2; from tissue; host or cells: fresh heparinized human whole blood from male and female volunteers, LPS-stimulated for 24 hours
T1 sequence (P35354 18-604): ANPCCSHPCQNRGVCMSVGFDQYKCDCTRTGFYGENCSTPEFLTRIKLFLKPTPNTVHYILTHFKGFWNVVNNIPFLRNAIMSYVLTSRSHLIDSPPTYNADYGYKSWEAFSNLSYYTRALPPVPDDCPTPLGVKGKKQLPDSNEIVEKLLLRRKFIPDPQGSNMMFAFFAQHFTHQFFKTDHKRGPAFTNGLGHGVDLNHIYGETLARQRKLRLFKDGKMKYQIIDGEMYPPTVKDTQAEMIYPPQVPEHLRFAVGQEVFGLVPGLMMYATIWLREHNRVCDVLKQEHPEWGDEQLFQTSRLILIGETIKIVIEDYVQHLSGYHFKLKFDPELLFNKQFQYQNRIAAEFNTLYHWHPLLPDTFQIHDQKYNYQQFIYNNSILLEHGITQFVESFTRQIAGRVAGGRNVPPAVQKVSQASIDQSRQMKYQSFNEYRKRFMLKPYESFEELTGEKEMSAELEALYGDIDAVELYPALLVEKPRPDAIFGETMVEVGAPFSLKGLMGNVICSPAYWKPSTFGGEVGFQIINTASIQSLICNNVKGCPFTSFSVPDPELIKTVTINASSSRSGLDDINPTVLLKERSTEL
Nature of the assay: Human Whole Blood (HWB) Assay: COX-2 (LPS-induced PGE2 production). The class given is cell-based. The settings on record: LPS-induced PGE2, 24 hours at 37° C. On the procedure:
Human Whole Blood (HWB) Assay Human whole blood provides a protein and cell-rich milieu appropriate for the study of biochemical efficacy of anti-inflammatory compounds such as selective COX-2 inhibitors. […] This is consistent with the observation that COX-2 inhibitors have no effect on PGE2 production in normal blood. These inhibitors are active only after incubation of human whole blood with LPS (lipopolysaccharide), which induces COX-2. This assay can be used to evaluate the inhibitory effect of selective COX-2 inhibitors on PGE2 production. As well, platelets in whole blood contain a large amount of the COX-1 enzyme. Immediately following blood clotting, platelets are activated through a thrombin-mediated mechanism. This reaction results in the production of thromboxane B2 (T×B2) via activation of COX-1. Thus, the effect of test compounds on T×B2 levels levels following blood clotting can be examined and used as an index for COX-1 activity. Therefore, the degree of selectivity by the test compound can be determined by measuring the levels of PGE2 after LPS induction (COX-2) and T×B2 following blood clotting (COX-1) in the same assay. A. COX-2 (LPS-induced PGE2 production) Fresh blood was collected in heparinized tubes by venipuncture from both male and female volunteers. The subjects had no apparent inflammatory conditions and had not taken any NSAIDs for at least 7 days prior to blood collection. Plasma was immediately obtained from a 2 mL blood aliquot to use as blank (basal levels of PGE2). The remaining blood was incubated with LPS ([…] final concentration, Sigma Chem, #L-2630 from E. coli; diluted in 0.1% BSA-Phosphate buffered saline) for […]. […] At the end of the incubation, the blood was centrifuged at 12,000×g for 5 minutes to obtain plasma. A […] aliquot of plasma was mixed with […] of methanol for protein precipitation. The supernatant was obtained and was assayed for PGE2 using a radioimmunoassay kit (Amersham, RPA#530) after conversion of PGE2 to its methyl oximate derivative according to the manufacturer's procedure. Compounds of the present invention are inhibitors of cyclooxygenase-2 and are thereby useful in the treatment of cyclooxygenase-2 mediated diseases as enumerated above. The activities of the compounds against cyclooxygenase may be seen in the representative results shown below. In the assay, inhibition is determined by measuring the amount of prostaglandin E2 (PGE2) synthesized in the presence of arachidonic acid, cyclooxygenase-1 or cyclooxygenase-2 and a putative inhibitor. The IC50 values represent the concentration of putative inhibitor required to return PGE2 synthesis to 50% of that obtained as compared to the uninhibited control.

The test system of assay [2] is Rat Paw Edema. Nature of the assay: Rat Paw Edema Assay. The class given is in vivo. The conditions noted are these: male Sprague-Dawley rats, po 1 hr before carrageenan, paw volume increase 3 hr later. As to the method: Rat Paw Edema Assay-Protocol
Male Sprague-Dawley rats (150-200 g) were fasted overnight and were given po either vehicle (1% methocel or 5% Tween 80) or a test compound. One hr later, a line was drawn using a permanent marker at the level above the ankle in one hind paw to define the area of the paw to be monitored. The paw volume (V0) was measured using a plethysmometer (Ugo-Basile, Italy) based on the principle of water displacement. The animals were then injected subplantarly with […] of 1% carrageenan solution in saline (FMC Corp, Maine) into the paw using an insulin syringe with a 25-gauge needle (i.e. […] carrageenan per paw). Three hr later, the paw volume (V3) was measured and the increases in paw volume (V3 -V0) were calculated. The animals were sacrificed by CO2 aphyxiation and the absence or presence of stomach lesions scored. Data were compared with the vehicle-control values and percent inhibition calculated. Since a maximum of 60-70% inhibition (paw edema) was obtained with standard NSAIDs, ED50 values were used for comparison. All treatment groups were coded to eliminate observer bias.
(In general: The carrageenan paw model is a standard test of acute inflammation.)

Assay [3] deals with T2, COX-1 (Homo sapiens, UniProt P23219).
T2 construct: platelets in whole blood contain a large amount of the COX-1 enzyme; from tissue; host or cells: fresh human whole blood without anticoagulant, allowed to clot (platelets)
T2 sequence (P23219 24-599): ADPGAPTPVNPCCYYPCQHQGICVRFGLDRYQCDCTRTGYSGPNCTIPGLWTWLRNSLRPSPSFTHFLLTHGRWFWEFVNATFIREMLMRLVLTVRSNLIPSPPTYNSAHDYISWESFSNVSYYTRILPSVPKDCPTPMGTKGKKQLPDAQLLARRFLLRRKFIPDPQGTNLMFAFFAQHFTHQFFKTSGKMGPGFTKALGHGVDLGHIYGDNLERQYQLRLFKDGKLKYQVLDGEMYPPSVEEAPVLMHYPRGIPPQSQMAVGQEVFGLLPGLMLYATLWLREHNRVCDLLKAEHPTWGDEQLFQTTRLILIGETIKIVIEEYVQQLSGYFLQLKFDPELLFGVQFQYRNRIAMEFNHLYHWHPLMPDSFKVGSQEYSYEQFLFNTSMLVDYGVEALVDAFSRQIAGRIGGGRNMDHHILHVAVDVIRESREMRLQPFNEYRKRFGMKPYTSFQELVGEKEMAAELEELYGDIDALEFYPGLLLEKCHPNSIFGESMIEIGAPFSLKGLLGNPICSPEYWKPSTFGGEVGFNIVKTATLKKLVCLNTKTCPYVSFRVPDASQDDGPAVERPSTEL
Nature of the assay: Human Whole Blood (HWB) Assay: COX-1 (Clotting-induced TxB2 production). It counts as cell-based. The conditions noted are these: clotting-induced TxB2, 1 hour at 37° C. On the procedure: Human Whole Blood (HWB) Assay
Human whole blood provides a protein and cell-rich milieu appropriate for the study of biochemical efficacy of anti-inflammatory compounds such as selective COX-2 inhibitors. […] This is consistent with the observation that COX-2 inhibitors have no effect on PGE2 production in normal blood. These inhibitors are active only after incubation of human whole blood with LPS (lipopolysaccharide), which induces COX-2. This assay can be used to evaluate the inhibitory effect of selective COX-2 inhibitors on PGE2 production. As well, platelets in whole blood contain a large amount of the COX-1 enzyme. Immediately following blood clotting, platelets are activated through a thrombin-mediated mechanism. This reaction results in the production of thromboxane B2 (T×B2) via activation of COX-1. […] Therefore, the degree of selectivity by the test compound can be determined by measuring the levels of PGE2 after LPS induction (COX-2) and T×B2 following blood clotting (COX-1) in the same assay. […]
Compounds of the present invention are inhibitors of cyclooxygenase-2 and are thereby useful in the treatment of cyclooxygenase-2 mediated diseases as enumerated above. […] In the assay, inhibition is determined by measuring the amount of prostaglandin E2 (PGE2) synthesized in the presence of arachidonic acid, cyclooxygenase-1 or cyclooxygenase-2 and a putative inhibitor. […]

Regarding `CC1(O)OC(=O)C(c2ccccc2)=C1c1ccc(S(C)(=O)=O)cc1` (centres unmarked) [Example 4, 5-Hydroxy-5-methyl-4-(4-(methylsulfonyl)phenyl)-3-phenyl-2-(5H)-furanone], in assay [1], the pIC50 – broadly, the negative decadic logarithm of the IC50, by convention in mol/L – is 5.90. In addition, in assay [2], the ED50 (in general, the dose that gives a 50% effect, or the effect in half of the subjects) stood at 1.53 mg/kg.

For `COC1(C)OC(=O)C(c2ccc(F)cc2)=C1c1ccc(S(C)(=O)=O)cc1` (centres unmarked) [Example 15, 3-(4-Fluorophenyl)-5-methoxy-5-methyl-4-(4-(methylsulfonyl)phenyl)-2-(5H)-furanone], the results for the pIC50 in assay [1] and in assay [3] were greater than 6.43 and less than 4.52, respectively. In assay [2], this compound came in with an ED50 of 2.8 mg/kg.

In the case of `CC1(O)OC(=O)C(c2ccc(F)cc2)=C1c1ccc(S(C)(=O)=O)cc1` (centres unmarked) [Example 5, 3-(4-Fluorophenyl)-5-hydroxy-5-methyl-4-(4-(methylsulfonyl)phenyl)-2-(5H)-furanone], the pIC50 in assay [1] is 5.85. In assay [2], this compound returned an ED50 of 1.84 mg/kg.

As for `COC1(C)OC(=O)C(c2ccccc2)=C1c1ccc(S(C)(=O)=O)cc1` (centres unmarked) [Example 10, 5-Methoxy-5-methyl-4-(4-(methylsulfonyl)phenyl)-3-phenyl-2-(5H)-furanone], in assay [1], the pIC50 was greater than 6.43. It took a dose of 1.94 mg/kg to reach the 50% effect level in assay [2] (ED50).

For the compound `CC1(O)OC(=O)C(c2ccc(Cl)cc2)=C1c1ccc(S(C)(=O)=O)cc1` (centres unmarked) [Example 6, 3-(4-Chlorophenyl)-5-hydroxy-5-methyl-4-(4-(methylsulfonyl)phenyl)-2-(5H)-furanone], the pIC50 in assay [1] is 5.62. In assay [2], this compound registered an ED50 of 1.41 mg/kg.
